ChEMBL document CHEMBL1140726, “Discovery and biological evaluation of 5-aryl-2-furfuramides, potent and selective blockers of the Nav1.8 sodium channel with efficacy in models of neuropathic and inflammatory pain” (J Med Chem, 2008)

Tests used:
[1] = target: Sodium channel protein type 10 subunit alpha (Mus musculus, UniProt Q6QIY3); test: Inhibition of mouse recombinant Nav 1.8 channel expressed in HEK293 cells by isotopic efflux assay; type: cell-based
[2] = Activity at rat dorsal root ganglion in inactivated state with prepulse voltage of -40 mV assessed as blockade of TTx-resistant sodium current at 0.03 uM by whole-cell patch clamp technique; type: functional
[3] = Activity at rat dorsal root ganglion in inactivated state with prepulse voltage of -40 mV assessed as blockade of TTx-resistant sodium current at 0.003 uM by whole-cell patch clamp technique; type: functional
[4] = Activity at rat dorsal root ganglion in resting state with prepulse voltage of -100 mV assessed as blockade of TTx-resistant sodium current at 0.3 uM by whole-cell patch clamp technique; type: functional
[5] = Activity at rat dorsal root ganglion in resting state with prepulse voltage of -100 mV assessed as blockade of TTx-resistant sodium current at 0.003 uM by whole-cell patch clamp technique; type: functional
[6] = target: T1, Sodium channel protein type 10 subunit alpha (Homo sapiens, UniProt Q9Y5Y9); test: Activity at human recombinant Nav 1.8 channel expressed in HEK293 cells in inactivated state with prepulse voltage of -40 mV assessed as blockade of TTx-resistant sodium current at 0.03 uM; type: cell-based
T1 sequence (Q9Y5Y9 whole entry, looked up): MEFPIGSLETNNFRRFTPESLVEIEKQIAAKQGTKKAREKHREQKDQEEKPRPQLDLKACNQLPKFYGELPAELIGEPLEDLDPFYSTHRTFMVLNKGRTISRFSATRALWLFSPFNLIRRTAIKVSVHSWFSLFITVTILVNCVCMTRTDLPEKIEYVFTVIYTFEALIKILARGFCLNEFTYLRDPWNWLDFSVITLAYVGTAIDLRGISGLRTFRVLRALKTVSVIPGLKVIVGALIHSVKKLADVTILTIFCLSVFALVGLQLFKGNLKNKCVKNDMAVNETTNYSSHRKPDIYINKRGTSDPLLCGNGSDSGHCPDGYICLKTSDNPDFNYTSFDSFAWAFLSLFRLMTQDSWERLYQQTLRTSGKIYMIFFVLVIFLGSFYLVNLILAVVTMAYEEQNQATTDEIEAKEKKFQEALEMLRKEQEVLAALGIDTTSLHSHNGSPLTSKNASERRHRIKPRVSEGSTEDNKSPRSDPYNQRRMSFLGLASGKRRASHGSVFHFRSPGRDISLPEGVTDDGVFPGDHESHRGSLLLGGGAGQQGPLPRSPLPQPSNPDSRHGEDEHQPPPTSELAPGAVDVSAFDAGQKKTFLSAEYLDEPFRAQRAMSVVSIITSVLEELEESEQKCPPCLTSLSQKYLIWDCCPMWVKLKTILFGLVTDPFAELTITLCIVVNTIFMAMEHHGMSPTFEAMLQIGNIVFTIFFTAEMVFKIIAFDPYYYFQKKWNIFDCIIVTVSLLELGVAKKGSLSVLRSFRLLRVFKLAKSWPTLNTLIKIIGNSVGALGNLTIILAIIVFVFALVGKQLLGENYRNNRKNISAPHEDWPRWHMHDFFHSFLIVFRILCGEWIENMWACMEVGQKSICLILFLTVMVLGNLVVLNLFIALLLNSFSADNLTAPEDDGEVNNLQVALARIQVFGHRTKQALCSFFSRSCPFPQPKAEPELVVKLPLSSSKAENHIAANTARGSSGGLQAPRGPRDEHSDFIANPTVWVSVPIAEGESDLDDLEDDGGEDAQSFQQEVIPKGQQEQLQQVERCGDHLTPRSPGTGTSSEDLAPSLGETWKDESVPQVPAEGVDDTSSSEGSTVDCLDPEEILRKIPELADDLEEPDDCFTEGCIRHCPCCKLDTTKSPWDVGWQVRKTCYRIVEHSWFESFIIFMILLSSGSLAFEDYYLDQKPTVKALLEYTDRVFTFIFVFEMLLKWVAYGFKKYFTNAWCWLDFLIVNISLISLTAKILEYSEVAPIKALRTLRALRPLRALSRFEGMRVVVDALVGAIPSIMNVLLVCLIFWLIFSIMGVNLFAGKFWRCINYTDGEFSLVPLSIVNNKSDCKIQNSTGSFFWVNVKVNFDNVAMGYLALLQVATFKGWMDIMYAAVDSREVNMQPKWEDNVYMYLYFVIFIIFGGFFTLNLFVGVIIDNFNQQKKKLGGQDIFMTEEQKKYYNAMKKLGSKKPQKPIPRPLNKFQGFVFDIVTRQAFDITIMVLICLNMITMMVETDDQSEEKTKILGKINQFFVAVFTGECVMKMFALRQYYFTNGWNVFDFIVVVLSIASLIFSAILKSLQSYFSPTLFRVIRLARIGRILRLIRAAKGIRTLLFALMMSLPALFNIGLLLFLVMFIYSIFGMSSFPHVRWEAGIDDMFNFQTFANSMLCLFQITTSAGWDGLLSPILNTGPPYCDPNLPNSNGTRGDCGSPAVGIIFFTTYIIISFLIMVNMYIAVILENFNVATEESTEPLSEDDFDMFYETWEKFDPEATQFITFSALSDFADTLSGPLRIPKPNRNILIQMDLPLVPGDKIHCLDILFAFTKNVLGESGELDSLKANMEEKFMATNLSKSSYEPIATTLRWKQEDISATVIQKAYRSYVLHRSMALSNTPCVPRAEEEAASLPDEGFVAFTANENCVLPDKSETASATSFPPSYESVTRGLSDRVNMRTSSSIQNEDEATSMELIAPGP

[7] = target: T1, Sodium channel protein type 10 subunit alpha; test: Activity at human recombinant Nav 1.8 channel expressed in HEK293 cells in inactivated state with prepulse voltage of -40 mV assessed as blockade of TTx-resistant sodium current at 0.3 uM; type: cell-based
[8] = target: T1, Sodium channel protein type 10 subunit alpha; test: Activity at human recombinant Nav 1.8 channel expressed in HEK293 cells in resting state with prepulse voltage of -100 mV assessed as blockade of TTx-resistant sodium current at 0.03 uM; type: cell-based
[9] = target: T1, Sodium channel protein type 10 subunit alpha; test: Activity at human recombinant Nav 1.8 channel expressed in HEK293 cells in resting state with prepulse voltage of -100 mV assessed as blockade of TTx-resistant sodium current at 0.3 uM; type: cell-based
[10] = target: T1, Sodium channel protein type 10 subunit alpha; test: Inhibition of human recombinant Nav 1.8 channel expressed in HEK293 cells at 0.03 uM; type: cell-based
[11] = target: T1, Sodium channel protein type 10 subunit alpha; test: Inhibition of human recombinant Nav 1.8 channel expressed in HEK293 cells at 0.3 uM; type: cell-based
[12] = target: Sodium channel protein type 2 subunit alpha (Homo sapiens) (UniProt Q99250); test: Inhibition of human Nav1.2 channel at 3 uM
[13] = target: Sodium channel protein type 3 subunit alpha (Homo sapiens) (UniProt Q9NY46); test: Inhibition of human Nav1.3 channel at 3 uM
[14] = target: Nav1.5 (sodium channel protein type 5 subunit alpha) (Homo sapiens, UniProt Q14524); test: Inhibition of human Nav1.5 channel at 3 uM
[15] = target: Sodium channel protein type 9 subunit alpha (Homo sapiens) (UniProt Q15858); test: Inhibition of human Nav1.7 channel at 3 uM
[16] = target: Voltage-gated inwardly rectifying potassium channel KCNH2 (Homo sapiens, UniProt Q12809); test: Inhibition of hERG potassium channel expressed in CHO cells by isotope efflux assay
Sequence of Voltage-gated inwardly rectifying potassium channel KCNH2 (Q12809 whole entry): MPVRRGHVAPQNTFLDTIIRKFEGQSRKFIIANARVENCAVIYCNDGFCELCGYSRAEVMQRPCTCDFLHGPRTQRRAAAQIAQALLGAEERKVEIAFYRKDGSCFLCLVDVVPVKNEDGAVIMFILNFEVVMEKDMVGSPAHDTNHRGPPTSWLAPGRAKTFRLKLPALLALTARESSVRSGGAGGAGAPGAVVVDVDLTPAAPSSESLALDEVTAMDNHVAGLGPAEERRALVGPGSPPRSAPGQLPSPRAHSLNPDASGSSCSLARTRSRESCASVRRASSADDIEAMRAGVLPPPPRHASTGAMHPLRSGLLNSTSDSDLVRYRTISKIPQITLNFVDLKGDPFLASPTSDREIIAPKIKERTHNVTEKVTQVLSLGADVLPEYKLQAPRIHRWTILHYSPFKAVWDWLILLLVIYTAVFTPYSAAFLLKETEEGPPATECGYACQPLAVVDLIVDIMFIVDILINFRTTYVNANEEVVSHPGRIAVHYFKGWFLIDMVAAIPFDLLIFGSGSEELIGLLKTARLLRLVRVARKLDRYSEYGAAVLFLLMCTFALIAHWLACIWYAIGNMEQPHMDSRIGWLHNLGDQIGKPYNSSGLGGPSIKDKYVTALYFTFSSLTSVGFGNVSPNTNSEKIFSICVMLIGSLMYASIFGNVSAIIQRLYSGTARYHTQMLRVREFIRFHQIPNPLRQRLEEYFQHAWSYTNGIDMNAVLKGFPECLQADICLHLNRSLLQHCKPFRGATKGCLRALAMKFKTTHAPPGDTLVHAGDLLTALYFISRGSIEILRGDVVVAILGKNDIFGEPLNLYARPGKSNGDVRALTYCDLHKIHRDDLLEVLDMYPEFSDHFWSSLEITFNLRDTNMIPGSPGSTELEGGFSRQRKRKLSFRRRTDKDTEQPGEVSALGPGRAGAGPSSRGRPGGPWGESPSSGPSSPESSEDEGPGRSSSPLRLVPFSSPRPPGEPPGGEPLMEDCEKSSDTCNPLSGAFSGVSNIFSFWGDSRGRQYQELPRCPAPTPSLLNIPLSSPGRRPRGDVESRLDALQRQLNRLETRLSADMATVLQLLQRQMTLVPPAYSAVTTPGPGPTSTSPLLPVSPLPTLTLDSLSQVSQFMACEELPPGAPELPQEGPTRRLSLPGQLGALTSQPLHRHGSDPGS

Sequence of Sodium channel protein type 10 subunit alpha (Mus musculus, UniProt Q6QIY3) (Q6QIY3 whole entry): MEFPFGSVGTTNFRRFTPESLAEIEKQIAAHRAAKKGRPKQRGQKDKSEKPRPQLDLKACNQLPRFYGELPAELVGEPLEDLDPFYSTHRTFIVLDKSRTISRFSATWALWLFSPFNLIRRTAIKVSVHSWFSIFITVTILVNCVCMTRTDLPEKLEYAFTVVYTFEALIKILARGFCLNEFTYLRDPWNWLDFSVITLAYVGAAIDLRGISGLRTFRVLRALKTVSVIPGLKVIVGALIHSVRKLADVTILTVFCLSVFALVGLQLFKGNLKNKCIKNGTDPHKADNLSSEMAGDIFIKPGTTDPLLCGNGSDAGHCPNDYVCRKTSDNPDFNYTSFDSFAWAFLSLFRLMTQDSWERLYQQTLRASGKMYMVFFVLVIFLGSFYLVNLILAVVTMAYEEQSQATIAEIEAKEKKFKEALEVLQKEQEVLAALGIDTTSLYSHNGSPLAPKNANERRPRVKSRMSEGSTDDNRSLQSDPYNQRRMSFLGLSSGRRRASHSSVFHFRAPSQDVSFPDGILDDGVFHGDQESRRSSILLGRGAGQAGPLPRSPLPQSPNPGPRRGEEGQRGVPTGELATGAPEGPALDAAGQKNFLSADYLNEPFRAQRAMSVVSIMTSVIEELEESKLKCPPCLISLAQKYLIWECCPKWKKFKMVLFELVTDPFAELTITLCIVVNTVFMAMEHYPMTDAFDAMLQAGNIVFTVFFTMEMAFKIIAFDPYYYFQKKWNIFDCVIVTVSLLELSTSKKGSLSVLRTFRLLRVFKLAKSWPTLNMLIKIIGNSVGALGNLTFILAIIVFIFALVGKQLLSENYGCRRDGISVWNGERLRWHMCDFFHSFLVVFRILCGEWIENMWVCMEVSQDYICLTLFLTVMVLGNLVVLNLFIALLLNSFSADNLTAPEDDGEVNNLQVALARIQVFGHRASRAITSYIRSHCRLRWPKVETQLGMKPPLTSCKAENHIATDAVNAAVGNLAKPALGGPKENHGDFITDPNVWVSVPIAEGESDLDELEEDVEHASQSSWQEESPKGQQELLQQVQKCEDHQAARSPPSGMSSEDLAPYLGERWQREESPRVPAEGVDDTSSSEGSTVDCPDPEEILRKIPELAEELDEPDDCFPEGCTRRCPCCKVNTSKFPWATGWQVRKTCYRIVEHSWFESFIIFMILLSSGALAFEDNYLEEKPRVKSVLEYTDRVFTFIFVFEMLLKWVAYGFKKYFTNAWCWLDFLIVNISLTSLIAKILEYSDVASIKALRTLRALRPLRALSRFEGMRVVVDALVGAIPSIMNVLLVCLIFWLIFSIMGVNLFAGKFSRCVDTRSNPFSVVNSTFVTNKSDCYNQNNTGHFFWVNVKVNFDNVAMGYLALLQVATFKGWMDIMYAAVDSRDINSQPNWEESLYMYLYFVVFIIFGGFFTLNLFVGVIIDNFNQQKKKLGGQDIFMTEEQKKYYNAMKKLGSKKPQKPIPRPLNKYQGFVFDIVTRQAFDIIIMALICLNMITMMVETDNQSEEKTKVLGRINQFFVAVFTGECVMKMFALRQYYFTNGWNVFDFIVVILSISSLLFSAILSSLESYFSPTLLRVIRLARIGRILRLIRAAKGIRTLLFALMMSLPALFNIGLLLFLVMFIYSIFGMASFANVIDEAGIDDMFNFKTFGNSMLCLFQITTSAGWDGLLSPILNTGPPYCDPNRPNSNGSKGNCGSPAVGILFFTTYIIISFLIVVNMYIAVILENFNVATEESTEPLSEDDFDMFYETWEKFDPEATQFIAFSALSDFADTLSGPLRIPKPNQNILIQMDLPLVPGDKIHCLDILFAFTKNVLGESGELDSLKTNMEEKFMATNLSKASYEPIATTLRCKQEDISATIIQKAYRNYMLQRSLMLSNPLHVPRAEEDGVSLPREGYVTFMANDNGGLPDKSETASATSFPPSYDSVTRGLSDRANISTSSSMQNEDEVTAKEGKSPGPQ

Compound `N#CCc1cccc(NC(=O)c2ccc(-c3ccc(Cl)cc3)o2)c1` has an IC50 [1] of 1.7 µM.

Work on `O=C(c1ccc(-c2ccc(Cl)cc2)o1)N1CCOCC1` yielded an IC50 [1] of over 30 µM.

Compound `O=C(NCCc1ccccc1Cl)c1ccc(-c2ccc(Cl)cc2)o1` has an IC50 [1] of 1.9 µM.

Work on `O=C(Nc1ccc2cc[nH]c2c1)c1ccc(-c2ccc(Cl)cc2)o1` yielded an IC50 [1] of 3.1 µM.

Work on `Cc1cccc(NC(=O)c2ccc(-c3ccc(S(C)(=O)=O)cc3)o2)c1` yielded an IC50 [1] of over 30 µM.

`O=C(Nc1cccc(N2CCOCC2)c1)c1ccc(-c2ccc(Cl)cc2)o1` gave an IC50 [1] of 4.6 µM.

With `Cc1cccc(NC(=O)c2cc(-c3ccc(Cl)cc3)co2)c1` the IC50 [1] was 5.3 µM.

`Cc1cccc(NC(=O)c2ccc(-c3cccc(C(F)(F)F)c3)o2)c1` gave an IC50 [1] of 7.5 µM.

`Cc1cccc(NC(=O)c2ccc(-c3cccc(C#N)c3)o2)c1` gave an IC50 [1] of 30 µM.

Compound `CN1CCCc2cc(NC(=O)c3ccc(-c4ccc(Cl)cc4)o3)ccc21` has an IC50 [1] of 2.9 µM, an inhibition at 0.03 µM [2] of 79% and an inhibition at 0.003 µM [3] of 44%. The inhibition at 0.3 µM [4] was 28%, the inhibition at 0.003 µM [5] was 31% and the inhibition [6] was 56%. For the same compound, the inhibition [7] was 70%, the inhibition [8] was 27% and the inhibition [9] was 66%. For the same compound, the inhibition [10] was 55%, the inhibition [11] was 70% and the inhibition [12] was 38%. It also gave an inhibition [13] of 37%, an inhibition at 3 µM [14] of 71% and an inhibition [15] of 44%. The IC50 [16] was 5.3 µM.

`O=C(Nc1cccc(C2=NCCO2)c1)c1ccc(-c2ccc(Cl)cc2)o1` gave an IC50 [1] of 2.5 µM.

For `Cc1cc(NC(=O)c2ccc(-c3ccc(Cl)cc3)o2)ccn1`, the IC50 [1] was 2.5 µM.
